What was measured:
[1] = tested on: oxytocin receptor; details: ref Koehbach et al. (2013b); cited from earlier work
Excerpt: (§1) Cyclotides are plant-derived cyclic peptides that are currently of great interest as lead molecules and peptide scaffolds for pharmaceutical drug development ([Thell et al., 2016]; [Craik and Du, 2017]). They were first isolated from O. affinis (Rubiaceae), a plant used as herbal preparation (‘kalata-kalata’) in traditional Congolese medicine for its uterotonic properties ([Gran, 1970]; [Craik et al., 1999]; [Gran et al., 2000]). Evidence-based proof of the plant’s traditional use in childbirth and post-partum care was provided in 2013; [Koehbach et al. (2013b)] isolated the cyclotide kalata B ...

[2] = tested on: vasopressin V1a receptor; details: ref Koehbach et al. (2013b); cited from earlier work
Excerpt: as §1

[3] = molecular target: T1, human CRF1R (Homo sapiens, UniProt P34998); test: cAMP accumulation assay at CRF1R (LANCE Ultra cAMP); format: cell-based
T1 construct: expressed in transfected cells; host or cells: HEK293
T1 sequence (P34998 24-415): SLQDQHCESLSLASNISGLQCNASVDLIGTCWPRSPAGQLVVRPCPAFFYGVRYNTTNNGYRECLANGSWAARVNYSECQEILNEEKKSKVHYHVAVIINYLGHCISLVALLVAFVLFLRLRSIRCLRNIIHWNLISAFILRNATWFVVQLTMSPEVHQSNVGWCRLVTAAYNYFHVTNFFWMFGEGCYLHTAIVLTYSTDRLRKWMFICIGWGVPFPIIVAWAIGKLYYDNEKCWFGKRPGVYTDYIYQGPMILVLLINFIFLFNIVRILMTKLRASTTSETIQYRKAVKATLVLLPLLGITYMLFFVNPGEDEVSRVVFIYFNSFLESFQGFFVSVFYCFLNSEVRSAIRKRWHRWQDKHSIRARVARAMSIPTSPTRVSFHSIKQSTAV
Experimental: (§2) Receptor-mediated cAMP accumulation was measured in HEK293 cells transiently transfected with the human CRF1R (with C-terminal GFP tag) using the LANCE® Ultra cAMP Detection kit (PerkinElmer, Waltham, MA, United States). To prepare for experiments, HEK293 cells were grown to confluence in a 6-well plate, followed by transfection with 2.5 μg of plasmid DNA per well using the Lipofectamine® 2000 transfection reagent (Thermo Fisher Scientific). After 4–6 h post-transfection, the cell media was replaced, followed by dissociation of cells via trituration and division of the cell suspension to avoid overcrowding over the subsequent 48 h of incubation at 37°C and 5% CO2. On the day of assay, cells were dissociated with phosphate buffered saline- (PBS-)EDTA solution (137 mM NaCl, 2.7 mM KCl, 10 mM Na2HPO4, 1.8 mM KH2PO4, 1 mM EDTA) and re-suspended in stimulation buffer (1.26 mM CaCl2, 0.49 mM MgCl2, 0.41 mM MgSO4, 5.33 mM KCl, 0.44 mM KH2PO4, 4.17 mM NaHCO3, 138 mM NaCl, 0.34 mM Na2HPO4, 5.56 mM D-glucose, 5 mM HEPES, 0.5 mM IBMX, 0.1% BSA; pH 7.4). Stimulation of cAMP accumulation via the human CRF1R and the human V2R used 500 cells and 300 cells (expressing these receptors) per well, respectively, in 384-well white Cellstar® plates (Greiner Bio-One, Kremsmuenster, Austria). Cells were incubated with the respective cognate receptor agonist peptides, in the absence and presence of cyclotide, for 30 min at 23°C in a final volume of 10 μL of stimulation buffer. Termination of cAMP accumulation was performed with the addition of 5 μL of Eu-cAMP tracer solution and 5 μL of ULight-anti-cAMP antibody solution, each prepared in detection buffer, followed by incubation of the plate for 1 h at 23°C with the lid on. After incubation, the plate was read in a Flexstation 3 plate reader (Molecular Devices, Sunnyvale, CA, United States).
Data from cellular assays were analyzed using GraphPad Prism 7.01 (GraphPad Software, San Diego, CA, United States). Concentration-response curve data were fitted to the three-parameter logistic equation to derive estimates of potency (LogIC50, luciferase; LogEC50, cAMP) and efficacy (Emax), relative to the maximal agonist control response. CRF LogEC50 values in the absence and presence of caripe 8 were statistically compared via extra sum-of-squares F test analysis. Other statistical analyses were performed as appropriate using one-way analysis of variance (ANOVA) with Bonferroni’s post-test, and significance taken as p < 0.05.

[4] = molecular target: T1, human CRF1R; test: CRE luciferase reporter gene assay (CRF1R antagonism/agonism); format: cell-based; details: fraction F, relative to the other identified cyclotides
Experimental: The ipecac extract was tested for its modulating effect on CRF1R signaling using a cell-based luciferase reporter assay. HEK293 cells transiently transfected with an C-terminally GFP-tagged human CRF1R and a luciferase-coupled cAMP response element (CRE) were stimulated with varying concentrations of ipecac extract (0.01–50 μg mL^-1) in the presence and absence of 50 nM endogenous corticotropin-releasing factor (CRF) ligand. Concentration-dependent inhibition of receptor signaling was determined by measuring luciferase induction and accounting for the fluorescence of receptor-positive cells. The amount of luminescence of the control samples incubated with hormone alone was defined as 100% efficacy (Figure 1E). The inhibitory potency of the corresponding cyclotide-containing ipecac extract was measured and normalized relative to the efficacy of the control. […] The inhibitory potency of the ipecac extract to antagonize CRF1R signaling was determined as half-maximal concentration (IC50) as 2.0 μg mL^-1 (Figure 1F). […]
After confirming the presence of cyclotides in the ipecac extract, we aimed to isolate the cyclotides responsible for CRF1R antagonism using a bioassay-guided fraction approach. […] All fractions were analyzed by analytical HPLC and MALDI-TOF MS. […] Fractions C and D were determined to contain at least two cyclotides (Figures 4B,C and Supplementary Figure 1). […]

[5] = tested on: human V2R; test: cAMP accumulation assay at vasopressin V2 receptor (LANCE Ultra cAMP); format: cell-based; details: HEK293 transiently expressing human V2R, caripe 8 26 nM & 260 nM, 30 min, 23°C, five or more experiments in triplicate, not statistically different (One-way ANOVA)
Experimental: as §2, with “Stimulation of cAMP accumulation via the human CRF1R and the human V2R used 500 cells and 300 cells (expressing these receptors) per well, respectively, in 384-well white Cellstar® plates (Greiner Bio-One, Kremsmuenster, Austria). Cells were incubated with the respective cognate receptor agonist peptides, in the absence and presence of cyclotide, for 30 min at 23°C in a final volume of 10 μL of stimulation buffer. Termination of cAMP accumulation was performed with the addition of 5 μL of Eu-cAMP tracer solution and 5 μL of ULight-anti-cAMP antibody solution, each prepared in detection buffer, followed by incubation of the plate for 1 h at 23°C with the lid on.” left out
Data from cellular assays were analyzed using GraphPad Prism 7.01 (GraphPad Software, San Diego, CA, United States). […]

Substance	affinity and potency at oxytocin receptor [1]	mode of action at oxytocin receptor [1]	affinity and potency at vasopressin V1a receptor [2]	mode of action at vasopressin V1a receptor [2]	fold reduction of CRF potency ([3]; 260 nM caripe 8, CRF concentration-response, HEK293 with human CRF1R, 30 min, 23°C, pH 7.4, six independent experiments in triplicate)	effect on CRF maximal response ([3]; 260 nM caripe 8, CRF concentration-response, six experiments in triplicate)	difference of CRF LogEC50 in absence and presence of caripe 8 ([3]; 260 nM caripe 8, extra sum-of-squares F test, six experiments in triplicate)	inhibition of CRF1R-mediated cAMP response to CRF ([3]; 2.6, 26 and 260 nM cyclotide with an EC50 / approximate EC80 (Fig. 6A) of CRF, 30 min, 23°C, three experiments in triplicate)	effect on cAMP accumulation in combination with submaximal forskolin ([3]; HEK293, human CRF1R, submaximal agonist concentrations of forskolin)	intrinsic activity in the cAMP assay ([3]; HEK293 transiently expressing human CRF1R, cyclotide alone, 30 min, 23°C, pH 7.4)	mode of antagonism at CRF1R ([3]; suggested from modest and limited antagonism)	limit of concentration-dependent inhibition of CRF-mediated cAMP response (data not shown) ([3]; titration with CRF, data not shown)	relative effectiveness as inhibitor of CRF1R-mediated luciferase activity [4]	effect on arginine-vasopressin-stimulated cAMP accumulation ([5]; AVP 50 pM)	effect on forskolin-stimulated cAMP accumulation ([5]; forskolin 300 nM)
kalata B7	moderate affinity and potency (μM-concentration range)	partial agonist	moderate affinity and potency (μM-concentration range)	partial agonist											
GVIPCGESCVFIPCITAAI–GCSCKKKVCYRN (bicyclic or more) [caripe 8, natural bracelet cyclotide isolated from fraction F of ipecac root extract]					approximately 4.5 fold	lack of effect	significantly different from each other (p < 0.05)	modest concentration-dependent inhibition	no effect	did not exhibit any intrinsic activity	does not interact competitively with the CRF binding site	observed to reach a threshold	the most effective inhibitor	not altered	not altered

— PMC5627009, “Cyclotides Isolated from an Ipecac Root Extract Antagonize the Corticotropin Releasing Factor Type 1 Receptor” (Frontiers in Pharmacology, 2017)
